Drawing on ChEMBL document CHEMBL2406961, “Inhibitors of ATR Kinase for Treatment of Cancer” (ACS Med Chem Lett, 2013), this text covers Ki for two compounds.

The assay deals with Serine/threonine-protein kinase ATR (Homo sapiens, UniProt Q13535). Nature of the assay: Inhibition of ATR (unknown origin).
Chain of Serine/threonine-protein kinase ATR (Q13535 whole entry): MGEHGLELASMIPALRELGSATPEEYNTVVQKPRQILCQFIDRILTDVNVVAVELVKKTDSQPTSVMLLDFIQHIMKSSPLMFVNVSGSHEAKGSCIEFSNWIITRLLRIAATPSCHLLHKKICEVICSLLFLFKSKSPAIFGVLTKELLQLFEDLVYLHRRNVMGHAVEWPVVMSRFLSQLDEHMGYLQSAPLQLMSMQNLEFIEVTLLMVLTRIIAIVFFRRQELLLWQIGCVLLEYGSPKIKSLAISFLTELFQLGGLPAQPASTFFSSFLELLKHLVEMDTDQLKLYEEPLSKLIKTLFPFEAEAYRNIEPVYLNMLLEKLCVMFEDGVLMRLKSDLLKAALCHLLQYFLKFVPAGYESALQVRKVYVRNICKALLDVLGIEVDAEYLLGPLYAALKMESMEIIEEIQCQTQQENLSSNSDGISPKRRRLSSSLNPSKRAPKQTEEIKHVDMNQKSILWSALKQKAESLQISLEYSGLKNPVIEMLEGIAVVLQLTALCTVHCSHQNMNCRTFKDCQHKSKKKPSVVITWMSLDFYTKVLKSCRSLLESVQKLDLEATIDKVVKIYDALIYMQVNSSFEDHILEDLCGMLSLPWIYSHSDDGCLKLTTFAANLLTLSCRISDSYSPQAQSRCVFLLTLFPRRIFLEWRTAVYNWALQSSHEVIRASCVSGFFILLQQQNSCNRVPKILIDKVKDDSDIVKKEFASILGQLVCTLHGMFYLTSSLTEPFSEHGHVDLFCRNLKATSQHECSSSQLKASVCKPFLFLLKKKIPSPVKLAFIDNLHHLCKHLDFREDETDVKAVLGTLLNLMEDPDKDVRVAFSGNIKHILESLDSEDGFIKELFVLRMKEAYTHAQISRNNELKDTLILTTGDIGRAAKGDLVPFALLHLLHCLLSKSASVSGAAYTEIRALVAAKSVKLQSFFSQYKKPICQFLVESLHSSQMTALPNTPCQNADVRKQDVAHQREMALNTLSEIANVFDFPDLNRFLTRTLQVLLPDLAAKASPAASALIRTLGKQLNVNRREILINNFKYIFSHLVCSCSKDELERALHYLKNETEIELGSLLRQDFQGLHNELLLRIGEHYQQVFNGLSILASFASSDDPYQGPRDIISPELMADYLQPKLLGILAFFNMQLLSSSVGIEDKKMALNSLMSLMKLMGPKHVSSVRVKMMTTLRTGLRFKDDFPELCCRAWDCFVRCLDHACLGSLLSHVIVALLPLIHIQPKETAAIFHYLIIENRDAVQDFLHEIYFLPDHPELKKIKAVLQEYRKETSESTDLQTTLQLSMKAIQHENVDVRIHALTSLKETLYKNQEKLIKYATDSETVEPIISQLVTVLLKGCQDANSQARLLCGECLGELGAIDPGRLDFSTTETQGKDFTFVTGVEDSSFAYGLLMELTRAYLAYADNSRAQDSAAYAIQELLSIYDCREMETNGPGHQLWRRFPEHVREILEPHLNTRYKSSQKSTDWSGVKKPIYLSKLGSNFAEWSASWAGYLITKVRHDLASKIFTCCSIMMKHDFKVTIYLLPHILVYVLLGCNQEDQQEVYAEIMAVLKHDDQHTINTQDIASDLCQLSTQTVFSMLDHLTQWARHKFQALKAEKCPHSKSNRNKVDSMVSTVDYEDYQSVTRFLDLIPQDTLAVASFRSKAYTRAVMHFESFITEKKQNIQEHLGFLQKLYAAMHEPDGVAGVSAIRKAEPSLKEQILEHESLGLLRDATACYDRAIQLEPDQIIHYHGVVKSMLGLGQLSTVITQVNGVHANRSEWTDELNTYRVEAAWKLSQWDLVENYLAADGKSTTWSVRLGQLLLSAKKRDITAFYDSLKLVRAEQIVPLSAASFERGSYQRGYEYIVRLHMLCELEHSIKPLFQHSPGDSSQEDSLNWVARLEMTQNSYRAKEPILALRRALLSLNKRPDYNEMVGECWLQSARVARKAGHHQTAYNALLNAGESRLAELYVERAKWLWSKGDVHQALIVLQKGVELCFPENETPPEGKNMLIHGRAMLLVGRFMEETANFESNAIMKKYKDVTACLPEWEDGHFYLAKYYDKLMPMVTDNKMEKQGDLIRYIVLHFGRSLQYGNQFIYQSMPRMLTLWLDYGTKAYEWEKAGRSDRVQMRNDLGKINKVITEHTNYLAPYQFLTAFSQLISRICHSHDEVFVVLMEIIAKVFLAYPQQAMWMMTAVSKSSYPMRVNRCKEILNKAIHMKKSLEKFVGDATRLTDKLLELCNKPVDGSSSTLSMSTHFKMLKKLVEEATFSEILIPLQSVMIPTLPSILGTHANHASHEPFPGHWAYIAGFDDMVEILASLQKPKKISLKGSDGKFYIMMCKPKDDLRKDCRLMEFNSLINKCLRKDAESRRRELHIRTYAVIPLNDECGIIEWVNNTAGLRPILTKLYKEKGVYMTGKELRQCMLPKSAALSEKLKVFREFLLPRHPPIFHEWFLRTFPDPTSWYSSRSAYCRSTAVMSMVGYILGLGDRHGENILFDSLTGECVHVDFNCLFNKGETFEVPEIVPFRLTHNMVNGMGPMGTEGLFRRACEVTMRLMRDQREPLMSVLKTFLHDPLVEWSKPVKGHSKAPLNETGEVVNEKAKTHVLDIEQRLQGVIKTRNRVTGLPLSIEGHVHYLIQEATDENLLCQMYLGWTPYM

For the compound `CC(C)S(=O)(=O)c1ccc(-c2cnc(N)c(C3CC(c4ccccc4)=NO3)n2)cc1` (configuration not stated), the affinity, expressed as Ki, was 90 nM.
The value for `CNCc1ccc(C2=NOC(c3nc(-c4ccc(S(=O)(=O)C(C)C)cc4)cnc3N)C2)cc1` (configuration not stated) was 16 nM.

Usually Ki stands for a dissociation constant, usually derived from enzyme kinetics or from competition with a known ligand. Read a low Ki as tighter binding.
